Values of other authors as cited in patent US20250091981A1, “PROCESS FOR THE PURIFICATION OF 5-AMINOSALICYLIC ACID” (CHEMI S.P.A., priority 2022, published 2025).

Key:
[1] = value reported in the literature
[2] = established in the guidelines

Row | isoelectric pH [1] | SMILES | maximum daily intake limit [2] [ng]
1 | 3.7 | Nc1ccc(O)c(C(=O)O)c1 [Example 5-ASA, 5-Amino salicylic acid] | –
2 | – | CCN(CC)N=O [NDEA, N,N-diethyl-nitrosamine] | 26.5
